Molecules are shown by their SMILES.

What all share (type): cell-based
The target of test [1] is T1, 17β-hydroxysteroid dehydrogenase type 1 (17β-HSD type 1) (Homo sapiens, UniProt P14061).
T1 construct: expressed in transfected cells; host or cells: MCF-7
T1 sequence (P14061 1-328): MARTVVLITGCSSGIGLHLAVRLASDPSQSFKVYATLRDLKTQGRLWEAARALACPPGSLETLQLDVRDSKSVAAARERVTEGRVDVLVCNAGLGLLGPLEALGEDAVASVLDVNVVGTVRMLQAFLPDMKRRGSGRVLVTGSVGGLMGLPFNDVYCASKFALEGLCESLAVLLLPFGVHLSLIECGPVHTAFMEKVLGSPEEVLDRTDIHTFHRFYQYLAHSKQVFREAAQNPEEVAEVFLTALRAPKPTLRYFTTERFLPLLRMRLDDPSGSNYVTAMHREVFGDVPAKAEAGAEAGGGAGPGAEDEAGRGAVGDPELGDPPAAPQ
Briefly: Inhibition of 17β-HSD type 1 in MCF-7 cells stably expressing the isoenzyme (tritium labeled estrone conversion, HPLC). The conditions noted are these: MCF-7 cells expressing 17β-HSD type 1, 2 nM tritium labeled estrone; for inhibition at 1 µM / inhibition at 10 µM: MCF7; for inhibition at 1 µM / % Inhibition HSD1 1 μM: 1 μM test compound; for inhibition at 1 µM: read-out: % Inhibition HSD1 1 μM; for inhibition at 10 µM / % Inhibition HSD1 10 μM: 10 μM test compound; for inhibition at 10 µM: read-out: % Inhibition HSD1 10 μM. Summed up:
(§1)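 Whole-cell MCF-7 lines, one isoenzyme each; substrate 2 nM ³H-estrone (type 1), ³H-estradiol (type 2) or ³H-androstenedione (type 3) in growth medium + compound at two concentrations. TCA stop, HPLC-radioflow read; % inhibition from reduced conversion vs no-compound control.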

Test [2] has as its target T2, 17β-hydroxysteroid dehydrogenase type 3 (17β-HSD type 3) (Homo sapiens, UniProt P37058).
T2 construct: expressed in transfected cells; host or cells: MCF-7
T2 sequence (P37058 1-310): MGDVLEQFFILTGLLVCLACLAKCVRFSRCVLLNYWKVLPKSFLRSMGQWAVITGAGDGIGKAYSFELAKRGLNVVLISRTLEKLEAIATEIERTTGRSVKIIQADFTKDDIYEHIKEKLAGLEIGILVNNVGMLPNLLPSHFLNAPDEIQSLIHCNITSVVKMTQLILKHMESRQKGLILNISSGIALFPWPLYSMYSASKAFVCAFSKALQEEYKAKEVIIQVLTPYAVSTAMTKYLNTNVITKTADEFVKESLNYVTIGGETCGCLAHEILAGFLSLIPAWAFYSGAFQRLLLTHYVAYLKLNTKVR
Nature of the test: Inhibition of 17β-HSD type 3 in MCF-7 cells stably expressing the isoenzyme (tritium labeled androstenedione conversion, HPLC). The conditions noted are these: MCF-7 cells expressing 17β-HSD type 3, 2 nM tritium labeled androstenedione; for inhibition at 1 µM / inhibition at 10 µM: MCF7; for inhibition at 1 µM / % Inhibition HSD3 1 μM: 1 μM test compound; for inhibition at 1 µM: read-out: % Inhibition HSD3 1 μM; for inhibition at 10 µM / % Inhibition HSD3 10 μM: 10 μM test compound; for inhibition at 10 µM: read-out: % Inhibition HSD3 10 μM. Summed up: as §1

The target in test [3] is T3, 17β-hydroxysteroid dehydrogenase type 2 (17β-HSD type 2) (Homo sapiens, UniProt P37059).
T3 construct: expressed in transfected cells; host or cells: MCF-7
T3 sequence (P37059 1-387): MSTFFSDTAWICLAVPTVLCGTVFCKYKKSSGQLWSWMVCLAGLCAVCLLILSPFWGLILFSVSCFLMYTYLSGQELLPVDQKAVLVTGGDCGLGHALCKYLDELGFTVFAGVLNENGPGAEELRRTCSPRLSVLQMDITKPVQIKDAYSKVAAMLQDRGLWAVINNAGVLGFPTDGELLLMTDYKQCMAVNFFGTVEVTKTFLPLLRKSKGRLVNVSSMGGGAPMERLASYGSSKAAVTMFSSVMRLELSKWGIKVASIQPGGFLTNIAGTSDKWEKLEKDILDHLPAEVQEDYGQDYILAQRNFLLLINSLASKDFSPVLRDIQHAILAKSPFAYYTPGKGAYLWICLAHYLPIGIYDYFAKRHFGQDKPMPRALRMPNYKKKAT
Nature of the test: Inhibition of 17β-HSD type 2 in MCF-7 cells stably expressing the isoenzyme (tritium labeled estradiol conversion, HPLC). Conditions: MCF-7 cells expressing 17β-HSD type 2, 2 nM tritium labeled estradiol; for inhibition at 1 µM / inhibition at 10 µM: MCF7; for inhibition at 1 µM / % Inhibition HSD2 1 μM: 1 μM test compound; for inhibition at 1 µM: read-out: % Inhibition HSD2 1 μM; for inhibition at 10 µM / % Inhibition HSD2 10 μM: 10 μM test compound; for inhibition at 10 µM: read-out: % Inhibition HSD2 10 μM. Summed up:
as §1

A word on the inhibition: it is the relative decrease from the control value, in per cent. Take `COC(=O)Cc1nc2sc3c(c2c(=O)n1Cc1ccccc1)CCCC3` [No. 26, 2-(acetic acid methyl ester)-3-benzyl-5,6,7,8-tetrahydro-3H-benzo[4,5]thieno[2,3-d]pyrimidin-4-one]: the inhibition at 1 µM in test [1] was 23.5%; in test [2], -6.1%; in test [3] it was -1.8%. The inhibition at 10 µM was determined as 37.4% in test [1], 7.1% in test [2] and 32.3% in test [3].
`CCCCC(CC)c1nc2sc3c(O)cccc3c2c(=O)n1CCCC` (stereo not drawn) [No. 635]: in test [1], the “% Inhibition HSD1 1 μM” value is on record as 4.9% and the “% Inhibition HSD1 10 μM” value is 18.9%. Besides, in test [2], the “% Inhibition HSD3 1 μM” value turned out to be 11.6% and the “% Inhibition HSD3 10 μM” value was 62.5%. In addition, in test [3], the “% Inhibition HSD2 1 μM” value is 15.4% and the “% Inhibition HSD2 10 μM” value amounted to 50.8%.
For the molecule `O=C1CCCc2c1sc1nc(-c3ccc(Br)s3)n(Cc3ccccc3)c(=O)c21` [No. 64, 3-Benzyl-2-(5-bromothiophen-2-yl)-6,7-dihydro-3H,5H-benzo[4,5]thieno[2,3-d]pyrimidine-4,8-dione], the inhibition at 1 µM in test [1] stood at 15%; in test [2], 12.1%; in test [3], 15.4%. Further, the values for the inhibition at 10 µM in test [1], in test [2] and in test [3] were 20.7%, 49% and 16.6%, respectively.
Take `Cc1nc2sc3c(c2c(=O)n1-c1ccccc1)CCCC3=O` [No. 25, 2-Methyl-3-phenyl-6,7-dihydro-3H,5H-benzo[4,5]thieno[2,3-d]pyrimidine-4,8-dione]: the inhibition at 1 µM in test [1] came to 5.9%; in test [2], 25.7%; in test [3], 5.5%. For the same molecule, the figures for the inhibition at 10 µM in test [1], in test [2] and in test [3] were 13.8%, 29% and 7.9%, respectively.
For the molecule `CCCc1nc2sc3c(O)cccc3c2c(=O)n1Cc1cc(Br)ccc1OC` [No. 98], the inhibition at 1 µM came to 28.2% in test [1], 16.6% in test [2] and 46.6% in test [3]. Besides, the inhibition at 10 µM is 69.1% in test [1], 63.3% in test [2] and 82.8% in test [3].
On to `COc1cc(-c2nc3sc4c(Oc5ccccc5)c(C=O)ccc4c3c(=O)n2Cc2ccccc2)cc(OC)c1OC` [No. 5, 3-Benzyl-4-oxo-8-phenoxy-2-(3,4,5-trimethoxyphenyl)-3,4-dihydro-benzo[4,5]thieno[2,3-d]pyrimidine-7-carbaldehyde], for which the figures for the inhibition at 1 µM in test [1], in test [2] and in test [3] were -1%, 9.4% and -0.9%, respectively. Also, the inhibition at 10 µM in test [1] was found to be 26.1%; in test [2], 9.1%; in test [3] it was 17%.
As for `COc1ccc(-c2nc3sc4c(c3c(=O)n2Cc2ccccc2)CCCC4)cc1` [No. 12, 3-Benzyl-2-(p-methoxyphenyl)-5,6,7,8-tetrahydro-3H-benzo[4,5]thieno[2,3-d]pyrimidin-4-one], the results for the inhibition at 1 µM in test [1], in test [2] and in test [3] were 6.3%, 3.1% and 4.2%, respectively. For the same molecule, the results for the inhibition at 10 µM in test [1], in test [2] and in test [3] were 34.5%, 55.5% and 12.3%, respectively.
For `COc1cc(-c2nc3sc4c(OC(C)=O)cccc4c3c(=O)n2Cc2ccccc2)c(Br)c(OC)c1OC` [No. 50, Acetic acid 3-benzyl-2-(2-bromo-3,4,5-trimethoxyphenyl)-4-oxo-3,4-dihydro-benzo[4,5]thieno[2,3-d]pyrimidin-8-yl ester], the inhibition at 1 µM is 34.4% in test [1], 32.9% in test [2] and 32.4% in test [3]. Also, the inhibition at 10 µM in test [1] was found to be 65.8%; in test [2] it was 75.8%; in test [3] it was 39%.
With `O=c1c2c(nc(-c3ccc(F)cc3F)n1CCc1ccccc1)sc1c(O)cccc12` [No. 630], in test [1], the “% Inhibition HSD1 1 μM” value came out at 25.1% and the “% Inhibition HSD1 10 μM” value is listed as 21.0%. Besides, in test [2], the “% Inhibition HSD3 1 μM” value came out at 10.9% and the “% Inhibition HSD3 10 μM” value was 35.4%. In test [3], the “% Inhibition HSD2 1 μM” value amounted to 24.7% and the “% Inhibition HSD2 10 μM” value amounted to 19.9%.
Regarding `O=c1c2c(nc(-c3ccccc3)n1Cc1ccccc1)sc1c(O)cccc12` [No. 60, 3-Benzyl-8-hydroxy-2-phenyl-3H-benzo[4,5]thieno[2,3-d]pyrimidine-4-one], the figures for the inhibition at 1 µM in test [1], in test [2] and in test [3] were 16.3%, 10% and 44.2%, respectively. For the same molecule, the inhibition at 10 µM in test [1] was 36%; in test [2] it was 45.7%; in test [3], 76.9%.
For `COc1cc(-c2nc3sc4c(c3c(=O)n2Cc2ccco2)CCCC4=O)cc(OC)c1OC` [No. 120, 3-Furan-2-ylmethyl-2-(3,4,5-trimethoxylphenyl)-6,7-dihydro-3H,5H-benzo[4,5]thieno[2,3-d]pyrimidine-4,8-dione], the inhibition at 1 µM in test [1] amounted to 17.6%; in test [2], 12.4%; in test [3] it was 19.9%. In addition, the inhibition at 10 µM in test [1] was 52.1%; in test [2] it was 38.4%; in test [3] it was 35.4%.
As to `COc1cc(-c2nc3sc4c(c3c(=O)n2Cc2ccccc2)CCC(Br)(Br)C4=O)c(Br)c(OC)c1OC` [No. 48, 3-benzyl-7,7-dibromo-2-(2-bromo-3,4,5-trimethoxyphenyl)-6,7-dihydro-3H,5H-benzo[4,5]thieno[2,3-d]pyrimidine-4,8-dione], the inhibition at 1 µM worked out at 27.4% in test [1], 33.7% in test [2] and 0.8% in test [3]. The inhibition at 10 µM turned out to be 36.5% in test [1], 23.4% in test [2] and 25.6% in test [3].
Consider `CCOC1=C(C=O)CCc2c1sc1nc(-c3cc(OC)c(OC)c(OC)c3)n(Cc3ccccc3)c(=O)c21` [No. 7, 3-Benzyl-8-ethoxy-4-oxo-2-(3,4,5-trimethoxyphenyl)-3,4,5,6-tetrahydro-benzo[4,5]thieno[2,3-d]pyrimidine-7-carbaldehyde], for which the inhibition at 1 µM in test [1] was 12.5%; in test [2] it was -17.6%; in test [3], 8.2%. The inhibition at 10 µM was 38.4% in test [1], 5.7% in test [2] and 27% in test [3].
In the case of `COc1cc(-c2nc3sc4c(Sc5ccccc5)c(C=O)ccc4c3c(=O)n2Cc2ccccc2)cc(OC)c1OC` [No. 9, 3-Benzyl-4-oxo-8-phenylsulfanyl-2-(3,4,5-trimethoxyphenyl)-3,4-dihydro-benzo[4,5]thieno[2,3-d]pyrimidine-7-carbaldehyde], the inhibition at 1 µM in test [1] is 31.9%; in test [2], 2.7%; in test [3], -2.6%. The inhibition at 10 µM in test [1] is 29.9%; in test [2], 1.4%; in test [3], -8.9%.
As to `CCCc1nc2sc3c(OC(C)=O)cccc3c2c(=O)n1Cc1cc(Br)ccc1OC` [No. 99], the values for the inhibition at 1 µM in test [1], in test [2] and in test [3] were 21.8%, 15.9% and 46.1%, respectively. Further, the inhibition at 10 µM stood at 64.5% in test [1], 68.9% in test [2] and 85.4% in test [3].
